From paper PMC8241022 (Drug Delivery, 2017)
Read-outs that look alike come from different tables or passages of the source. Marks after values point to notes of the source that are not given here.

What was measured:
in vivo [1] = settings: both, New Zealand albino, rabbit; for Tmax: CCSDD group, 0.3 ml (5 mg/ml) DEXP then 0.1 ml/h for 10 h
Experimental: (§1) Male and female New Zealand albino rabbits (about four months old and weighing 2.0–2.5 kg) were acquired from the Third Xiangya Hospital of Central South University (Changsha, China). All rabbits were examined thoroughly, and no ocular disease, then were randomly allocated to different groups for subsequent ocular PK studies. Animals were anesthetized by intramuscularly injecting Xylazine Hydrochloride Injection (2 ml:0.2 g, Huamu Animal Health Products Co., Jilin, 0.1–0.2 ml/kg) and dropped Oxybuprocaine Hydrochloride Eye Drops (20 ml:80 mg, Sa) three times, interval 2 min per time.
(§2) Rabbits were randomly divided into three groups and six rabbits for each group per time point. […] After the last instillation in IV group (1 h, 3 h, 6 h, 12 h, 24 h) and SC injection group (1 h, 2 h, 3 h, 4 h, 6 h, 8 h, 12 h, 24 h), respectively, the ocular tissue were collected. […] Animals were euthanized by 3 ml lidocaine (3 ml/rabbit) and 3 ml air intravenously, immediately after death, ocular tissues were collected. Vitreous, choroid/retina and sclera were dissected and weighted as the solid tissues, the samples were stored at −20 °C and then processed for analysis.
(§3) Frozen rabbit samples were thawed at ambient temperature, the solid samples were fixed with 400 ml 0.9% normal saline (NS) and homogenized. A 100 μl aliquot of Triamcinolone diacetate (I.S. 200 ng/ml) standard solution was added to 100 μl of each fluid sample and 400 μl 0.9% NS or homogenized samples. After a thorough vortex mixing for 30 s, the mixture was extracted with 1 ml n-hexane and acetate ester (1:1, v/v) for 60 min, the mixture was centrifuged at 14 000 rpm for 5 min. The organic layer was removed and evaporated under a gentle stream nitrogen gas at 45 °C until it was completely dry. The dried residue was dissolved with 50 μl mobile phase. After centrifugation, 5 μl of the clear supernatant was injected into the LC–MS system: LC-10AD VP low pressure gradient pump, CTO-10A VP column temperature oven, SCL-10AD VP system controller, and LC-MS chemstation. Separation was achieved on a Thermo Hypersil-Hypurity C18 column (150 mm × 2.1 mm, i.d., 5 μm, USA) at 40 °C. […] The operating parameters of ESI–MS (electrospray ionization–mass spectrometry) were as follows: capillary voltage was 4.5 kV; nebulizer nitrogen gas flow-rate was 1.5 l/min; drying N2 flow was 10 l/min; drying gas temperature was 250 °C, the gas used was of high purity, and system control and data evaluation were carried out using LC-MS chemstation (Japan). […] Quantitation was performed by a linear regression analysis of peak areas ratio from a standard curve containing seven standard points.
(§4) The following pharmacokinetic parameters were obtained: peak concentration (Cmax), time to peak concentration (Tmax), elimination half-life (T1/2), area under the concentration–time curve between 0 and 24 h (AUC0–24).
(§5) Tissue concentrations were analyzed using one-way analysis of variance (ANOVA). If there were differences in three groups, we used Dunnett T3 to analyze two groups. All other results were descriptive measures. Statistical significance was accepted at a level of p < 0.05.

[2] = SC: subconjunctival injection of 0.3 ml (5 mg/ml) DEXP, mean ± SD, n=6
Experimental: as §1, §2, §3, §4, §5

in vivo [3] = settings: both, New Zealand albino, rabbit, iv, 1 mg/kg
Experimental: as §1, §2, §3, §4, §5

[4] = for dexamethasone concentration, Choroidal/retinal compound / dexamethasone concentration, Sclera / dexamethasone concentration, Vitreum: IV: intravenous injection of 1 mg/kg DEXP, mean ± SD, n=6
Experimental: as §1, §2, §3, §4, §5

[5] = for dexamethasone concentration, Choroidal/retinal compound / dexamethasone concentration, Sclera / dexamethasone concentration, Vitreum: CCSDD: first dose 0.3 ml (5 mg/ml) DEXP, then 0.1 ml/h for 10 h, mean ± SD, n=6
Experimental: as §1, §2, §3, §4, §5

SMILES: C[C@@H]1C[C@H]2[C@@H]3CCC4=CC(=O)C=C[C@]4(C)[C@@]3(F)[C@@H](O)C[C@]2(C)[C@@]1(O)C(=O)CO [dexamethasone]
- Cmax (in vivo [1]; choroid/retina): 3220 ng/g
- Cmax (in vivo [1]; in vivo, topical or ocular, 6.5 mg): 71 ng/mL
- Tmax (in vivo [1]; in vivo, topical or ocular, 6.5 mg, Choroidal/retinal compound): 3 h
- Tmax (in vivo [1]; in vivo, topical or ocular, 6.5 mg, Sclera): 1 h
- Tmax (in vivo [1]; in vivo, topical or ocular, 6.5 mg, Vitreum): 1 h
- Cmax (in vivo [1]; sclera): 11200 ng/g
- AUC(0-t) (in vivo [1]; vitreous, topical or ocular, 6.5 mg): 1410 ng·h/mL
- dexamethasone concentration, Choroidal/retinal compound ([2]; 1 h): 1881.83 ± 336.98^a
- dexamethasone concentration, Sclera ([2]; 1 h): 8604.95 ± 1597.26
- dexamethasone concentration, Vitreum ([2]; 1 h): 63.19 ± 15.12
- dexamethasone concentration, Choroidal/retinal compound ([2]; 2 h): 3212.63 ± 796.76
- dexamethasone concentration, Sclera ([2]; 2 h): 6071.65 ± 737.76
- dexamethasone concentration, Vitreum ([2]; 2 h): 80.45 ± 11.10
- dexamethasone concentration, Choroidal/retinal compound ([2]; 3 h): 3638.80 ± 580.05
- dexamethasone concentration, Sclera ([2]; 3 h): 4419.68 ± 1006.87^a
- dexamethasone concentration, Vitreum ([2]; 3 h): 73.77 ± 14.74
- dexamethasone concentration, Choroidal/retinal compound ([2]; 4 h): 1701.27 ± 551.90
- dexamethasone concentration, Sclera ([2]; 4 h): 2287.56 ± 742.66
- dexamethasone concentration, Vitreum ([2]; 4 h): 39.65 ± 8.87
- dexamethasone concentration, Choroidal/retinal compound ([2]; 6 h): 1333.65 ± 469.43^a
- dexamethasone concentration, Sclera ([2]; 6 h): 1645.75 ± 631.69^a
- dexamethasone concentration, Vitreum ([2]; 6 h): 34.53 ± 6.89
- dexamethasone concentration, Choroidal/retinal compound ([2]; 8 h): 760.86 ± 177.74
- dexamethasone concentration, Sclera ([2]; 8 h): 1031.78 ± 443.14
- dexamethasone concentration, Vitreum ([2]; 8 h): 28.29 ± 4.56
- dexamethasone concentration, Sclera ([2]; 12 h): 463.21 ± 136.14^a
- dexamethasone concentration, Vitreum ([2]; 12 h): 22.68 ± 5.40^a
- dexamethasone concentration, Choroidal/retinal compound ([2]; 24 h): 184.59 ± 94.86^a
- dexamethasone concentration, Sclera ([2]; 24 h): 237.94 ± 139.25^a
- dexamethasone concentration, Vitreum ([2]; 24 h): 3.71 ± 4.31^a
- Cmax (in vivo [3]; choroid/retina): 285 ng/g
- Tmax (in vivo [3]; choroid/retina): 3 h
- Cmax (in vivo [3]; sclera): 403 ng/g
- Tmax (in vivo [3]; sclera): 3 h
- AUC(0-t) (in vivo [3]; vitreous): 285 ng·h/mL
- Cmax (in vivo [3]; vitreous): 43.8 ng/mL
- Tmax (in vivo [3]; vitreous): 1 h
- AUC0–24, choroid/retinal compound ([4]; IV route, rabbit): 1571.71 ng·h/g
- AUC0–24, sclera ([4]; IV route, rabbit): 2858.71 ng·h/g
- dexamethasone concentration, Choroidal/retinal compound ([4]; 1 h): 140.57 ± 34.56^a
- dexamethasone concentration, Sclera ([4]; 1 h): 281.42 ± 60.13^a
- dexamethasone concentration, Vitreum ([4]; 1 h): 43.78 ± 2.62
- dexamethasone concentration, Sclera ([4]; 3 h): 402.99 ± 96.49^a
- dexamethasone concentration, Vitreum ([4]; 3 h): 30.08 ± 2.55^a
- dexamethasone concentration, Choroidal/retinal compound ([4]; 6 h): 90.75 ± 12.08^a
- dexamethasone concentration, Sclera ([4]; 6 h): 141.57 ± 31.46^a
- dexamethasone concentration, Vitreum ([4]; 6 h): 21.53 ± 2.66^a
- dexamethasone concentration, Choroidal/retinal compound ([4]; 12 h): 38.94 ± 13.00^a
- dexamethasone concentration, Sclera ([4]; 12 h): 64.38 ± 11.83^a
- dexamethasone concentration, Vitreum ([4]; 12 h): 5.34 ± 5.11^a
- dexamethasone concentration, Choroidal/retinal compound ([4]; 24 h): 3.71 ± 4.50^a
- dexamethasone concentration, Sclera ([4]; 24 h): 22.23 ± 7.44^a
- dexamethasone concentration, Vitreum ([4]; 24 h): 1.37 ± 2.14^a
- AUC0–24, choroid/retinal compound ([5]; CCSDD administration, rabbit): 41400.70 ng·h/g
- AUC0–24, sclera ([5]; CCSDD administration, rabbit): 93577.80 ng·h/g
- dexamethasone concentration, Choroidal/retinal compound ([5]; 1 h after first dose): 2522.46 ± 425.94
- dexamethasone concentration, Sclera ([5]; 1 h after first dose): 11192.22 ± 5302.51
- dexamethasone concentration, Vitreum ([5]; 1 h after first dose): 71.05 ± 30.23
- dexamethasone concentration, Choroidal/retinal compound ([5]; 3 h after first dose): 3291.35 ± 438.11
- dexamethasone concentration, Sclera ([5]; 3 h after first dose): 9785.20 ± 1964.12
- dexamethasone concentration, Vitreum ([5]; 3 h after first dose): 57.23 ± 12.34
- dexamethasone concentration, Choroidal/retinal compound ([5]; 6 h after first dose): 2331.09 ± 454.41
- dexamethasone concentration, Sclera ([5]; 6 h after first dose): 6215.17 ± 1871.83
- dexamethasone concentration, Vitreum ([5]; 6 h after first dose): 50.23 ± 13.77
- dexamethasone concentration, Choroidal/retinal compound ([5]; 10 h after first dose): 1796.19 ± 380.36
- dexamethasone concentration, Sclera ([5]; 10 h after first dose): 4053.03 ± 1330.47
- dexamethasone concentration, Vitreum ([5]; 10 h after first dose): 50.51 ± 8.40
- dexamethasone concentration, Choroidal/retinal compound ([5]; 11 h after first dose): 1518.52 ± 332.81
- dexamethasone concentration, Sclera ([5]; 11 h after first dose): 3857.47 ± 1508.05
- dexamethasone concentration, Vitreum ([5]; 11 h after first dose): 42.84 ± 6.24
- dexamethasone concentration, Choroidal/retinal compound ([5]; 12 h after first dose): 1191.62 ± 303.29
- dexamethasone concentration, Sclera ([5]; 12 h after first dose): 1913.73 ± 389.28
- dexamethasone concentration, Vitreum ([5]; 12 h after first dose): 33.52 ± 5.31
- dexamethasone concentration, Choroidal/retinal compound ([5]; 16 h after first dose): 988.97 ± 336.43
- dexamethasone concentration, Sclera ([5]; 16 h after first dose): 1215.48 ± 449.07
- dexamethasone concentration, Choroidal/retinal compound ([5]; 20 h after first dose): 812.90 ± 188.26
- dexamethasone concentration, Sclera ([5]; 20 h after first dose): 906.40 ± 312.84
- dexamethasone concentration, Vitreum ([5]; 20 h after first dose): 27.78 ± 3.26
- dexamethasone concentration, Choroidal/retinal compound ([5]; 24 h after first dose): 418.20 ± 97.81
- dexamethasone concentration, Sclera ([5]; 24 h after first dose): 484.52 ± 155.25
- dexamethasone concentration, Vitreum ([5]; 24 h after first dose): 22.40 ± 4.38
